Patent US20250387358A1 (SpringWorks Therapeutics, Inc., priority 2024, published 2025)

Tested on: NF1-associated plexiform neurofibromas (PNs)
Test: Phase 2b trial, efficacy by BICR volumetric MRI per REiNS criteria
Assay type: in vivo, human
Details: observed time
Method: Participants were screened (assessed for eligibility as described below). […] The median age was 34.5 years (range 18 to 69 years); 85% were white and 64% were female. […] The most commonly reported morbidities were pain (90%) and disfigurement or major deformity (52%).
The median age was 10 years (range 2 to 17 years); 66% were white and 54% were female. […] The most commonly reported morbidities were pain (70%) and disfigurement or major deformity (50%).
Study treatment was administered orally at a twice daily (BID) dose specified in the table below. Dosing was on a 28-day Cycle (4-week course) with a 3 week on/1 week off schedule. The treatment period will last for up to 24 Cycles followed by a 30-day Safety Follow-Up period.
A partial response was defined as PN decrease ≥20% compared to baseline using centrally read MRI volumetric analysis.
The major efficacy outcome measure was confirmed objective response rate (ORR), defined as the percentage of patients with complete response (disappearance of the target PN) or confirmed partial response (≥20% reduction in PN volume confirmed at a subsequent tumor assessment within 2-6 months during the 24-cycle treatment phase). Responses were assessed by blinded independent central review (BICR) using volumetric magnetic resonance imaging (MRI) analysis per Response Evaluation in Neurofibromatosis and Schwannomatosis (REINS) criteria. A secondary efficacy objective was to determine the duration of response for patients who achieved a confirmed objective response.

[1] = Pediatric, first DoR line (r12)
[2] = Pediatric, second DoR line (r13)

Compound: O=C(NOC[C@H](O)CO)c1ccc(F)c(F)c1Nc1ccc(I)cc1F (single isomer, unassigned) [mirdametinib]
- DoR ≥12 months, % of responders (Adult, first DoR line (r12)): (88%)
- DoR ≥12 months, number of responders (Adult, first DoR line (r12)): 21
- DoR ≥12 months, % of responders (Adult, second DoR line (r13)): (48%)
- DoR ≥12 months, number of responders (Adult, second DoR line (r13)): 14
- DoR ≥12 months, % of responders [1]: (90%)
- DoR ≥12 months, number of responders [1]: 26
- DoR ≥12 months, % of responders [2]: (66%)
- DoR ≥12 months, number of responders [2]: 19
